Laboratory results as given in ChEMBL document CHEMBL1153641, “Diaminocyclobutenediones as potent and orally bioavailable CXCR2 receptor antagonists: SAR in the phenolic amide region” (Bioorg Med Chem Lett, 2009).

Columns and labels:
[1] = molecular target: T1, C-X-C chemokine receptor type 2 (Homo sapiens, UniProt P25025)
T1 sequence (P25025 whole entry): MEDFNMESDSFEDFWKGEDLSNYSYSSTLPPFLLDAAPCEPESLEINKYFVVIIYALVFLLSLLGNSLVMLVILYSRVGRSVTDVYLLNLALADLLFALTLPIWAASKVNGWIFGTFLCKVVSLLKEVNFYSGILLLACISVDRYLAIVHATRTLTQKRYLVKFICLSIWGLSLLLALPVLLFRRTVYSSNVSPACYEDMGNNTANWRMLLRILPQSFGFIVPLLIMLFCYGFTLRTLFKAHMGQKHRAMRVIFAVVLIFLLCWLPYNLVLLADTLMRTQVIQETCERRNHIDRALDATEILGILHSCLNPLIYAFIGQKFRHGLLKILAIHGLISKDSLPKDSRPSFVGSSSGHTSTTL
Description: Displacement of human [125I]IL-8 from human CXCR2

[2] = AUC in rat at 10 mg/kg, po; format: ADME, organism-based; set-up: dose 10 mg/kg, route oral; settings: plasma
[3] = molecular target: T2, C-X-C chemokine receptor type 1 (Homo sapiens, UniProt P25024)
T2 sequence (P25024 whole entry): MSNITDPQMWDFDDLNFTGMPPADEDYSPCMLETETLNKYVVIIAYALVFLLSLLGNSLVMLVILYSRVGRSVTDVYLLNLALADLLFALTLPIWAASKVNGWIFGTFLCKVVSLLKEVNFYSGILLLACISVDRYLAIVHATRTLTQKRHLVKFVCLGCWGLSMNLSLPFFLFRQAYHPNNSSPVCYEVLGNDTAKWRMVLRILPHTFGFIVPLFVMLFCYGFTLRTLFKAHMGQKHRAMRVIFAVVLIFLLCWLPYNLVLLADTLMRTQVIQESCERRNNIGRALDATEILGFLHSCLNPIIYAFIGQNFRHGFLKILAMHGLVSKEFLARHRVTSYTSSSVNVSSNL
Description: Displacement of human [125I]IL-8 from human CXCR1

Row | SMILES | Ki [1] | AUC [2] | Ki [3]
1 | CC[C@@H](Nc1c(Nc2cccc(C(=O)N(C)C)c2O)c(=O)c1=O)c1ccccc1 | 4.4 nM | 17.4 µM·h | –
2 | CC[C@@H](Nc1c(Nc2cccc(C(=O)N(C)C)c2O)c(=O)c1=O)c1cccs1 | 5 nM | 2.5 µM·h | 210 nM
3 | CC[C@@H](Nc1c(Nc2cccc(C(=O)N3CCN(C(=O)c4ccccn4)CC3)c2O)c(=O)c1=O)c1ccccc1 | 20 nM | – | –
4 | CC[C@@H](Nc1c(Nc2ccc(-c3ccccn3)c(C(=O)N(C)C)c2O)c(=O)c1=O)c1ccccc1 | 15 nM | – | > 1000 nM
5 | CC[C@@H](Nc1c(Nc2cc(-c3ccccc3)cc(C(=O)N(C)C)c2O)c(=O)c1=O)c1ccccc1 | > 2000 nM | – | –
6 | CC[C@@H](Nc1c(Nc2cc(Cl)cc(C(=O)N(C)C)c2O)c(=O)c1=O)c1cccs1 | 50 nM | 2.2 µM·h | 1220 nM
7 | CC[C@@H](Nc1c(Nc2cc(C)cc(C(=O)N(C)C)c2O)c(=O)c1=O)c1cccs1 | 76 nM | – | 2800 nM
8 | CC[C@@H](Nc1c(Nc2ccccc2O)c(=O)c1=O)c1ccc(C)o1 | 22 nM | – | –
9 | CC[C@H](c1ccccc1)N(C)c1c(Nc2cccc(C(=O)N(C)C)c2O)c(=O)c1=O | > 270 nM | – | –
10 | CC[C@@H](Nc1c(Nc2cccc(C(=O)N3CC[C@H](O)C3)c2O)c(=O)c1=O)c1ccccc1 | 18 nM | – | 21 nM
11 | CC[C@@H](Nc1c(Nc2cccc(C(=O)N3CC[C@H](CO)C3)c2O)c(=O)c1=O)c1ccccc1 | 20 nM | 0.44 µM·h | –
12 | CC[C@@H](Nc1c(Nc2cccc(C(=O)N3CCCC3C(=O)O)c2O)c(=O)c1=O)c1ccccc1 (stereo partly specified) | 5 nM | – | 30 nM
13 | CC[C@@H](Nc1c(Nc2ccc(Br)c(C(=O)N(C)C)c2O)c(=O)c1=O)c1ccccc1 | 4 nM | 0.06 µM·h | –
14 | CC[C@@H](Nc1c(Nc2ccc(-c3ccccc3)c(C(=O)N(C)C)c2O)c(=O)c1=O)c1ccccc1 | 17 nM | – | –
15 | CC[C@@H](Nc1c(Nc2cccc(C(N)=O)c2O)c(=O)c1=O)c1ccccc1 | 25 nM | 2.2 µM·h | –
16 | CC[C@@H](Nc1c(Nc2cc(C#N)cc(C(=O)N(C)C)c2O)c(=O)c1=O)c1ccccc1 | 3 nM | – | –
17 | CC[C@@H](Nc1c(N2CCOc3c(C(=O)N(C)C)cccc32)c(=O)c1=O)c1ccccc1 | > 270 nM | – | –

Row | SMILES | Ki [1] | AUC [2] | Ki [3]
18 | CC[C@@H](Nc1c(Nc2cccc(C(=O)N(C)C(C)C)c2O)c(=O)c1=O)c1ccccc1 | 11 nM | 1.4 µM·h | 123 nM
19 | CC[C@@H](Nc1c(Nc2cccc(C(=O)N3CC(O)C3)c2O)c(=O)c1=O)c1ccccc1 | 20 nM | 0.5 µM·h | –
20 | CC[C@@H](Nc1c(Nc2cccc(C(=O)N3CCN(C)CC3)c2O)c(=O)c1=O)c1ccccc1 | 12 nM | – | 41 nM
21 | CC[C@@H](Nc1c(Nc2cccc(C(=O)O)c2O)c(=O)c1=O)c1ccc(C)o1 | 12 nM | – | –
22 | CC[C@@H](Nc1c(Nc2cccc(C(=O)N3CCN(C(C)=O)CC3)c2O)c(=O)c1=O)c1ccccc1 | 27 nM | – | –
23 | CC[C@@H](Nc1c(Nc2c(C)ccc(C(=O)N(C)C)c2O)c(=O)c1=O)c1ccccc1 | 4.5 nM | 2.3 µM·h | 381 nM
24 | CC[C@@H](Nc1c(Nc2cc(Br)cc(C(=O)N(C)C)c2O)c(=O)c1=O)c1cccs1 | 61 nM | 1.4 µM·h | 2070 nM
25 | CC[C@@H](Nc1c(Nc2cccc(C(=O)NC(C)C)c2O)c(=O)c1=O)c1ccccc1 | 219 nM | – | –
26 | CC[C@@H](Nc1c(Nc2cccc(C(=O)NC)c2O)c(=O)c1=O)c1ccccc1 | 28 nM | 0.4 µM·h | –
27 | CC[C@@H](Nc1c(Nc2cc(C)cc(C(=O)N(C)C)c2O)c(=O)c1=O)c1ccccc1 | 203 nM | – | –
28 | CC[C@@H](Nc1c(Nc2cccc(C(=O)N3CCOCC3)c2O)c(=O)c1=O)c1ccccc1 | 10 nM | – | –
29 | CC[C@@H](Nc1c(Nc2cc(C#N)cc(C(=O)N(C)C)c2O)c(=O)c1=O)c1cccs1 | 5 nM | – | 54 nM
30 | CC[C@@H](Nc1c(Nc2cccc(C(=O)N3CCCC3)c2O)c(=O)c1=O)c1ccccc1 | 9 nM | 1 µM·h | –
31 | CC[C@@H](Nc1c(Nc2cccc(C(=O)NC3CC3)c2O)c(=O)c1=O)c1ccccc1 | 34 nM | – | –
32 | CC[C@@H](Nc1c(Nc2cccc(C(=O)N(C)C)c2OC)c(=O)c1=O)c1ccccc1 | > 270 nM | – | –
33 | CC[C@H](c1ccccc1)N(C)c1c(N(C)c2cccc(C(=O)N(C)C)c2O)c(=O)c1=O | > 270 nM | – | –
